Laboratory results taken from ChEMBL document CHEMBL1201862, “PubChem BioAssay data set” (2004).
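Compound exposure: 48 hours, 5 concentrations, 96-well plates. GI50 is the concentration that inhibits growth by half.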 The source made the active and inactive calls. No stated cut-off is given here; in the data, active = GI50 up to about 1.1 µM and inactive = higher.

What was measured:
Test in all cases: NCI tumour cell line growth inhibition, 48 h
SNB-19 = system: SNB-19
A498 = system: A498
CAKI-1 = system: CAKI-1
SR = system: SR
SF-268 = system: SF-268
T47D = system: T47D
HOP-62 = system: HOP-62
OVCAR-5 = system: OVCAR-5
SK-MEL-28 = system: SK-MEL-28
DU-145 = system: DU-145
Malme-3M = system: Malme-3M
OVCAR-8 = system: OVCAR-8
Hs-578T = system: Hs-578T
RXF 393 = system: RXF 393
COLO 205 = system: COLO 205
786-0 = system: 786-0
OVCAR-3 = system: OVCAR-3
BT-549 = system: BT-549
K562 = system: K562
CCRF-CEM = system: CCRF-CEM
PC-3 = system: PC-3
IGROV-1 = system: IGROV-1
NCI-H460 = system: NCI-H460
SK-MEL-5 = system: SK-MEL-5
HCT-116 = system: HCT-116
M14 = system: M14
SF-295 = system: SF-295
HCT-15 = system: HCT-15
NCI-H226 = system: NCI-H226
NCI-H522 = system: NCI-H522
UACC-62 = system: UACC-62
ACHN = system: ACHN
TK-10 = system: TK-10
MDA-MB-435 = system: MDA-MB-435
SN12C = system: SN12C
SF-539 = system: SF-539
MOLT-4 = system: MOLT-4
UO-31 = system: UO-31
SK-MEL-2 = system: SK-MEL-2
HOP-92 = system: HOP-92
UACC-257 = system: UACC-257
MDA-N = system: MDA-N
SW-620 = system: SW-620
LOX IMVI = system: LOX IMVI
MDA-MB-231 = system: MDA-MB-231
MCF7 = system: MCF7
NCI/ADR-RES = system: NCI/ADR-RES
RPMI-8226 = system: RPMI-8226
U-251 = system: U-251
EKVX = system: EKVX
SNB-75 = system: SNB-75
NCI-H23 = system: NCI-H23
A549 = system: A549
OVCAR-4 = system: OVCAR-4
HCC 2998 = system: HCC 2998
HL-60 = system: HL-60
KM12 = system: KM12
HT-29 = system: HT-29
SK-OV-3 = system: SK-OV-3

For `O=C1C=CC(=O)C1(Br)Br`, the GI50 (SNB-19) was 17.1 µM (inactive), the GI50 (A498) was 13.2 µM (inactive) and the GI50 (CAKI-1) was 5.11 µM (inactive). The GI50 (SR) was 3.42 µM (inactive), the GI50 (SF-268) was 18.5 µM (inactive) and the GI50 (T47D) was 14.8 µM (inactive). For the same compound, the GI50 (HOP-62) was 17.6 µM (inactive), the GI50 (OVCAR-5) was 10.7 µM (inactive) and the GI50 (SK-MEL-28) was 7.24 µM (inactive). For the same compound, the GI50 (DU-145) was 16 µM (inactive), the GI50 (Malme-3M) was 20 µM (inactive) and the GI50 (OVCAR-8) was 8.3 µM (inactive). The GI50 (Hs-578T) was 17.9 µM (inactive), the GI50 (RXF 393) was 6.37 µM (inactive) and the GI50 (COLO 205) was 10 µM (inactive). The GI50 (786-0) was 9.18 µM (inactive), the GI50 (OVCAR-3) was 12.9 µM (inactive) and the GI50 (BT-549) was 11.3 µM (inactive). The GI50 (K562) was 10.2 µM (inactive), the GI50 (CCRF-CEM) was 7.55 µM (inactive) and the GI50 (PC-3) was 14.6 µM (inactive). For the same compound, the GI50 (IGROV-1) was 5.01 µM (inactive), the GI50 (NCI-H460) was 19.3 µM (inactive) and the GI50 (SK-MEL-5) was 16.9 µM (inactive). For the same compound, the GI50 (HCT-116) was 7.69 µM (inactive), the GI50 (M14) was 18.1 µM (inactive) and the GI50 (SF-295) was 17.2 µM (inactive). For the same compound, the GI50 (HCT-15) was 6.53 µM, the GI50 (NCI-H226) was 19 µM (inactive) and the GI50 (NCI-H522) was 6.27 µM (inactive). The GI50 (UACC-62) was 10.8 µM (inactive), the GI50 (ACHN) was 6.75 µM (inactive) and the GI50 (TK-10) was 2.67 µM (inactive). For the same compound, the GI50 (MDA-MB-435) was 13.4 µM (inactive), the GI50 (SN12C) was 7.96 µM (inactive) and the GI50 (SF-539) was 16.4 µM (inactive). The GI50 (MOLT-4) was 14.7 µM (inactive), the GI50 (UO-31) was 6.27 µM (inactive) and the GI50 (SK-MEL-2) was 12.5 µM (inactive). For the same compound, the GI50 (HOP-92) was 16.3 µM (inactive), the GI50 (UACC-257) was 16.1 µM (inactive) and the GI50 (MDA-N) was 11.5 µM (inactive). For the same compound, the GI50 (SW-620) was 10.1 µM (inactive), the GI50 (LOX IMVI) was 12.1 µM (inactive) and the GI50 (MDA-MB-231) was 8.22 µM (inactive). The GI50 (MCF7) was 11 µM (inactive), the GI50 (NCI/ADR-RES) was 20.7 µM (inactive) and the GI50 (RPMI-8226) was 6.64 µM (inactive). The GI50 (U-251) was 12.3 µM (inactive), the GI50 (EKVX) was 14.5 µM (inactive) and the GI50 (SNB-75) was 12 µM (inactive). The GI50 (NCI-H23) was 15.5 µM (inactive), the GI50 (A549) was 13.8 µM (inactive) and the GI50 (OVCAR-4) was 17.6 µM (inactive). For the same compound, the GI50 (HCC 2998) was 16.2 µM (inactive), the GI50 (HL-60) was 11.4 µM (inactive) and the GI50 (KM12) was 13.1 µM (inactive). For the same compound, the GI50 (HT-29) was 7.38 µM (inactive) and the GI50 (SK-OV-3) was 21 µM (inactive).

With `COc1cc2c(cc1O)Cc1c-2[n+](C)cc2cc(OC)c(OC)cc12` the GI50 (SNB-19) was 1.64 µM (inactive), the GI50 (A498) was > 64.1 µM (inactive) and the GI50 (CAKI-1) was 25.8 µM (inactive). The GI50 (SR) was 0.118 µM (active), the GI50 (SF-268) was 0.472 µM (active) and the GI50 (T47D) was 19.1 µM (inactive). The GI50 (HOP-62) was 6.61 µM (inactive), the GI50 (OVCAR-5) was > 100 µM (inactive) and the GI50 (SK-MEL-28) was > 89.9 µM (inactive). For the same compound, the GI50 (DU-145) was 4.23 µM (inactive), the GI50 (Malme-3M) was > 86.5 µM (inactive) and the GI50 (OVCAR-8) was 2.72 µM (inactive). The GI50 (Hs-578T) was 60 µM (inactive), the GI50 (RXF 393) was 22.9 µM (inactive) and the GI50 (COLO 205) was > 74.3 µM (inactive). For the same compound, the GI50 (786-0) was 2.87 µM (inactive), the GI50 (OVCAR-3) was 29.7 µM (inactive) and the GI50 (BT-549) was 8.11 µM (inactive). For the same compound, the GI50 (K562) was 1.93 µM (inactive), the GI50 (CCRF-CEM) was 0.407 µM (active) and the GI50 (PC-3) was 28.8 µM (inactive). The GI50 (IGROV-1) was 52.7 µM (inactive), the GI50 (NCI-H460) was 3.28 µM (inactive) and the GI50 (SK-MEL-5) was 6.76 µM (inactive). The GI50 (HCT-116) was 15.3 µM (inactive), the GI50 (M14) was 7.19 µM (inactive) and the GI50 (SF-295) was 7.89 µM (inactive). For the same compound, the GI50 (HCT-15) was 24.4 µM, the GI50 (NCI-H226) was > 59 µM (inactive) and the GI50 (NCI-H522) was 0.49 µM (active). The GI50 (UACC-62) was 7.43 µM (inactive), the GI50 (ACHN) was 1.5 µM (inactive) and the GI50 (TK-10) was > 88.1 µM (inactive). For the same compound, the GI50 (MDA-MB-435) was 36 µM (inactive), the GI50 (SN12C) was 4.8 µM (inactive) and the GI50 (SF-539) was 1.82 µM (inactive). For the same compound, the GI50 (MOLT-4) was 0.653 µM (active), the GI50 (UO-31) was 8.53 µM (inactive) and the GI50 (SK-MEL-2) was > 100 µM (inactive). For the same compound, the GI50 (HOP-92) was > 77.3 µM (inactive), the GI50 (UACC-257) was > 68.9 µM (inactive) and the GI50 (MDA-N) was 34.9 µM (inactive). For the same compound, the GI50 (SW-620) was 33.4 µM (inactive), the GI50 (LOX IMVI) was 5.94 µM (inactive) and the GI50 (MDA-MB-231) was > 100 µM (inactive). For the same compound, the GI50 (MCF7) was 15.2 µM (inactive), the GI50 (NCI/ADR-RES) was 6.79 µM (inactive) and the GI50 (RPMI-8226) was 9.14 µM (inactive). For the same compound, the GI50 (U-251) was 2.01 µM (inactive), the GI50 (EKVX) was > 90.8 µM (inactive) and the GI50 (SNB-75) was 63.2 µM (inactive). The GI50 (NCI-H23) was 12.6 µM (inactive), the GI50 (A549) was 38 µM (inactive) and the GI50 (OVCAR-4) was > 63.2 µM (inactive). The GI50 (HCC 2998) was > 100 µM (inactive), the GI50 (HL-60) was 2.75 µM (inactive) and the GI50 (KM12) was > 59.6 µM (inactive). The GI50 (HT-29) was > 83 µM (inactive) and the GI50 (SK-OV-3) was > 35.6 µM (inactive).
